Several values for one entry are separate records, joined by “and”; a condition that tells them apart may be missing. Identical values can stand only once. Entries after “also recorded” stand apart in the source; their conditions may differ. Peptide text beside a SMILES is read from it.

Assay [1] has as its target T1, M. haemolytica leukotoxin (Lkt) (Mannheimia haemolytica, UniProt P16535). Kind of assay: cell-based.
The subject of assay [2] is M. haemolytica serotype-1 strain SH789. In words: Calf challenge model: endobronchial inoculation of M. haemolytica with or without peptide. The format is in vivo, Mannheimia haemolytica. The settings on record: for Gross pneumonic lesions as % of total lung volume, Lesion (%), individual calf: 2 mg peptide with 5×10^9 CFU M. haemolytica endobronchially, necropsy 90 hours post-inoculation; for Number of M. haemolytica isolated from the lungs at necropsy, individual calf / Number of M. haemolytica isolated from the lungs at necropsy, Mean / Gross pneumonic lesions as % of total lung volume, Mean (%): 2 mg peptide with 5×10^9 CFU endobronchially; for Duration of nasal discharge post-inoculation: study period 90 hours; for Number of M. haemolytica isolated from the lungs at necropsy, Mean: group mean; for Number of M. haemolytica isolated from the lungs at necropsy, Mean / Gross pneumonic lesions as % of total lung volume, Mean (%): 4 calves; for Gross pneumonic lesions as % of total lung volume, Mean (%): group mean±SEM, 90 hours. As to the method:
M. Haemolytica serotype-1 strain SH789, isolated from the pneumonic lung of a calf, was streaked on blood agar plate and incubated overnight at 37° C. The following day few colonies were transferred to 3 ml of pre-warmed brain heart infusion (BHI) broth and incubated for 3 hours at 37° C. with constant shaking (200 cycles/minute). Two BHI agar plates were ‘lawned’ with this bacterial culture using sterile cotton swabs and incubated overnight at 37° C. The following day (day of inoculation) M. haemolytica was harvested from the BHI agar plates and transferred to 40 ml of pre-warmed BHI broth in a 250 ml flask, and incubated for 2.5 hours at 37° C. with constant shaking to obtain cultures in the logarithmic phase of growth. The culture was centrifuged at 6000×g at 20° C. for 30 minutes and the pellet was washed once with RPMI 1640 (without phenol red) medium. The bacterial pellet was re-suspended in 4 ml of RPMI 1640 (without phenol red), and 1 ml of this culture was added to 50 ml of pre-warmed RPMI 1640 (without phenol red) containing L-glutamine (1 ml L-glutamine/100 ml RPMI) in a 250 ml flask. Bacteria were incubated for 3 hours at 37° C. with constant shaking to obtain logarithmic phase culture and the optical density (OD) was measured. The culture was appropriately diluted to obtain a concentration of 1×10^9 CFU of M. haemolytica per ml. Five ml of this preparation per calf was used for endobronchial challenge. The bacterial concentration was confirmed the following day by culturing diluted aliquots of the inoculum on BHI agar and counting the resulting colonies.
The peptide (P17) containing amino acids 5-17 of bovine CD18 (NH2-RPQLLLLAGLLAL-OH) (SEQ ID NO.:71), and the peptide (PSC) containing the same amino acids as peptide P17 but in a randomly scrambled sequence (NH2-LRALLPLQLLAGL-OH) (SEQ ID NO.:72), were synthesized at Neopeptide (Cambridge, Mass.). Both peptides were re-suspended in dimethysulfoxide (ATCC) at a concentration of 20 mg/ml and stored at −20° C. until used. Based on the results of in vitro neutralization of Lkt by peptide P17, each calf was endobronchially inoculated with 2 mg of peptide in 5 ml of RPMI mixed with 5×10^9 CFU of M. haemolytica in 5 ml of RPMI.
All experimental protocols were approved by the Institutional Animal Care and Use Committee (IACUC) at Washington State University before the onset of the study. Twelve Holstein calves were randomly assigned to three experimental groups. Calves were matched for age when assigned into three groups. Prior to inoculation, serum samples and pharyngeal and nasal swabs were collected from all the calves. Group I calves received endobronchial injections of 5×10^9 CFU of M. haemolytica in 10 ml of RPMI. Group II calves received 5×10^9 CFU of M. haemolytica and 2 mg of peptide PSC in 10 ml of RPMI. Group III calves received 5×10^9 CFU of M. haemolytica and 2 mg of peptide P17 in 10 ml of RPMI. The inoculum was flushed down with an additional 10 ml of RPMI in all calves. Clinical disease in each calf was scored at different time points post-inoculation.
Physical examination of each calf was performed immediately prior to experimental infection and at 6, 18, 24, 42, 48, 66, 72, and 90 hours post-inoculation. Signs of clinical disease were allocated points according to the scoring system followed by Malazdrewich et al (2003; Table 3).
On necropsy lungs were removed and gross pneumonic lesion development in each lobe of lung was observed. The entire lung from each animal was sliced at 1 cm thickness and the total and pneumonic lesion areas were traced onto transparent acetate sheets. The traced portions were scanned into ImgaeJ, NIH Image (National Institute of Health; Nethesda, Md.), which was used to measure areas representing both the total serial section and the gross pneumonic lesions within it. […]

For assay [3], the target named is T1, M. haemolytica leukotoxin (Lkt).

For orientation: IC50 means the midpoint of a concentration-inhibition curve. In the case of `CSCC[C@H](N)C(=O)N[C@@H](CC(C)C)C(=O)N[C@@H](CCCNC(=N)N)C(=O)N[C@@H](CCC(N)=O)C(=O)N[C@@H](CCCNC(=N)N)C(=O)N1CCC[C@H]1C(=O)N[C@@H](CCC(N)=O)C(=O)N[C@@H](CC(C)C)C(=O)N[C@@H](CC(C)C)C(=O)N[C@@H](CC(C)C)C(=O)N[C@@H](CC(C)C)C(=O)N[C@@H](C)C(=O)NCC(=O)N[C@@H](CC(C)C)C(=O)N[C@@H](CC(C)C)C(=O)N[C@@H](C)C(=O)N[C@@H](CC(C)C)C(=O)N[C@@H](CCC(N)=O)C(=O)N[C@@H](CO)C(=O)N[C@H](C(=O)O)C(C)C` [P1] (H-MLRQRPQLLLLAGLLALQSV-OH), in assay [1], it took 11.6 µM to reach half-maximal inhibition (IC50).

The molecule `CC(C)C[C@H](NC(=O)CNC(=O)[C@H](C)NC(=O)[C@H](CC(C)C)NC(=O)[C@H](CC(C)C)NC(=O)[C@H](CC(C)C)NC(=O)[C@H](CC(C)C)NC(=O)[C@H](CCC(N)=O)NC(=O)[C@@H]1CCCN1C(=O)[C@@H](N)CCCNC(=N)N)C(=O)N[C@@H](CC(C)C)C(=O)N[C@@H](C)C(=O)N[C@@H](CC(C)C)C(=O)N[C@@H](CCC(N)=O)C(=O)N[C@@H](CO)C(=O)N[C@H](C(=O)N[C@@H](CC(C)C)C(=O)N[C@@H](CO)C(=O)N[C@@H](CCC(N)=O)C(=O)N[C@@H](CCC(=O)O)C(=O)O)C(C)C` [P5] (H-RPQLLLLAGLLALQSVLSQE-OH) showed an IC50 in assay [1] of 5.55 µM.

On to “NH2-LRALLPLQLLAGL-OH (H-LRALLPLQLLAGL-OH) [PSC, reference compound]”, for which, in assay [2] (calves), the “Gross pneumonic lesions as % of total lung volume, Lesion (%), individual calf” value is 4.07% and 10.70% and 9.01% and 24.57%; the “Duration of nasal discharge post-inoculation” value is reported as “throughout the study period”. Also, the “Number of M. haemolytica isolated from the lungs at necropsy, individual calf” value in assay [2] (calves, necropsy 90 hours) was 1.89 × 10^7 CFU per gram of lung tissue and 6.73 × 10^5 CFU per gram of lung tissue and 6.50 × 10^7 CFU per gram of lung tissue and 1.87 × 10^7 CFU per gram of lung tissue. Also, in assay [2] (necropsy 90 hours), the “Number of M. haemolytica isolated from the lungs at necropsy, Mean” value is 2.58 ± 1.374 × 10^7 CFU per gram of lung tissue. Also, in assay [2], the “Gross pneumonic lesions as % of total lung volume, Mean (%)” value is 12.09 ± 4.39%. Also, in assay [3], the “Leukotoxic activity of supernatant fluids from M. haemolytica cultures incubated with peptide” value is recorded as “had significant leukotoxic activity”.

“NH2-RPQLLLLAGLLAL-OH (H-RPQLLLLAGLLAL-OH; listed as Bos taurus) [P17]”: in assay [1], the “Inhibition of Lkt-induced cytolysis of bovine PMNs” value was “strongly inhibited” and the “Inhibition of Lkt-induced cytolysis of ruminant leukocytes” value is given as “effectively inhibited”. The “M. haemolytica in lungs, fold less than in Group I (bacteria only) and Group II (PSC)” value in assay [2] (calves, necropsy 90 hours, P<0.001) is 100- to 1000 fold and 100 to 1000 fold. Also, the “Gross pneumonic lesions (percent lung volume) compared between groups” value in assay [2] (calves, necropsy 90 hours, P=0.9) is on record as “not statistically significant; also recorded: no less than those in calves inoculated with the control peptide PSC”. In assay [2] (calves), the “Gross pneumonic lesions as % of total lung volume, Lesion (%), individual calf” value is 15.67% and 2.7% and 13.22% and 8.51%; the “Duration of nasal discharge post-inoculation” value is listed as “up to 24 hours”. The “Number of M. haemolytica isolated from the lungs at necropsy, individual calf” value in assay [2] (calves, necropsy 90 hours) was 5.29 × 10^3 CFU per gram of lung tissue and 4.92 × 10^2 CFU per gram of lung tissue and 5.70 × 10^4 CFU per gram of lung tissue and 8.00 × 10^2 CFU per gram of lung tissue. The “Mean clinical score compared with other groups at 24 hours post-inoculation” value in assay [2] (calves, 24 hours post-inoculation, P<0.05) is recorded as “statistically significantly lower”. Also, the “Total clinical disease scores compared with Group I and II” value in assay [2] (calves, scored 6 to 90 hours post-inoculation) is “lower than those for group I and II at all time points except 48 hours”. The “Number of M. haemolytica isolated from the lungs at necropsy, Mean” value in assay [2] (necropsy 90 hours) was 1.589 ± 1.374 × 10^4 CFU per gram of lung tissue. In addition, in assay [2], the “Gross pneumonic lesions as % of total lung volume, Mean (%)” value worked out at 10.53 ± 3.02%. The “Leukotoxic activity of supernatant fluids from M. haemolytica cultures incubated with peptide” value in assay [3] was “did not exhibit significant leukotoxic activity”.

The record behind these values is US9102925B2, “Compositions and methods for treating or preventing conditions and diseases associated with Mannheimia haemolytica” (Washington State University, priority 2009, dated 2015).
